This note sets out measurements from PMC7497095, “Active Intermediates in Copper Nitrite Reductase Reactions Probed by a Cryotrapping‐Electron Paramagnetic Resonance Approach” (Angewandte Chemie (International Ed. in English), 2020).

For the test, the target named is T1, AxNiR (Achromobacter xylosoxidans, UniProt O68601).
T1 construct: gene nir; two-domain copper nitrite reductase, homotrimer
As to the kind of experiment: continuous-wave EPR of T2Cu; cryoreduction-EPR with annealing. In kind it is binding. The settings on record: oxidized enzyme; T2Cu active site; EPR at 20 K.

T1 sequence (O68601 entry or part of it): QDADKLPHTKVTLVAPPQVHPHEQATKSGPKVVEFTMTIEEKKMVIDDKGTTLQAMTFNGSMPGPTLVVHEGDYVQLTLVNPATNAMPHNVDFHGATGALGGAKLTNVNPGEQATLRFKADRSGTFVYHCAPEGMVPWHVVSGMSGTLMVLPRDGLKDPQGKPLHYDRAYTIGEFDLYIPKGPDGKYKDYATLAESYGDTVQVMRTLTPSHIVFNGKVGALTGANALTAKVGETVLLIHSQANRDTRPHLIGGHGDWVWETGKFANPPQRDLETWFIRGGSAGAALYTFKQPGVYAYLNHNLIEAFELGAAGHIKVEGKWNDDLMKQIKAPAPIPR

As to `O=NO` [nitrite], the “continuous-wave EPR of T2Cu; cryoreduction-EPR with annealing” value is listed as “This is indicative of the nitrite being bound to the catalytic T2Cu site”.
